Patent publication US7605272B2, “IGF-1R inhibitor” (Kyowa Hakko Kirin Co., Ltd., priority 2005, dated 2009)

Key:
NCI-H929 = assay: Cytostatic activity on human multiple myeloma cell line NCI-H929 (WST-1); format: cell-based; conditions: for inhibition at 10 µM: 10 μmol/L, read-out: cytostatic rate (%) H929 (10 μmol/L)
Method: (§1) The cytostatic rates of a test compound on human multiple myeloma cell lines NCI-H929 and KMS-11, were determined in the following manner.
(§2) For culturing NCI-H929, Roswell Park Memorial Institute's Medium (RPMI) 1640 (Gibco, Catalog No. 11875-093) containing 15% fetal bovine serum (Gibco, Catalog No. 10099-141), 1 mmol/L sodium pyruvate (Gibco, Catalog No. 11360-070), 10 mmol/L HEPES (Gibco, Catalog No. 15630-80), 4.5 g/L glucose (Sigma, Catalog No. G8769), 0.05 mmol/L 2-mercaptethanol (Nacalai Tesque, Catalog No. 21418-42) and penicillin/streptomycin (1:1) (Gibco, Catalog No. 15140-122) was used. For culturing KMS-11 cell, RPMI 1640 medium containing 10% fetal bovine serum and penicillin/streptomycin (1:1) was used. Each 80 μL of the NCI-H929 cell having a concentration of 1×10^5 cells/mL (or the KMS-11 cell having a concentration of 7.5×10^4 cells/mL) was inoculated to wells of a TC MICROWELL 96U plate (Nalge Nunc International, Catalog No. 163320) and was cultured in a 5% carbon dioxide gas incubator at 37° C. for 24 hours. Each 20 μL of a solution of the test compound in dimethyl sulfoxide (DMSO) which was prepared to make the final concentration to 1 μmol/L or 10 μmol/L, was added to each well. Each 20 μL of DMSO was added to the control well and the blank well to a final concentration of 0.1%. After adding the test compound, the cells were incubated in a 5% carbon dioxide gas incubator at 37° C. for 72 hours except for the blank well. After adding 20 μL of WST-1 reagent {4-[3-(4-iodophenyl)-2-(4-nitrophenyl)-2H-5-tetrazolio]-1,3-benzene disulfonate sodium salt} (Roche Diagnostics K.K., Catalog No. 1644807), which was diluted to 50% by RPMI medium to each well, the cells were further incubated at 37° C. for 2 hours. Then, the absorbances at 450 nm (reference wavelength: 690 nm) were measured with a microplate spectrophotometer SPECTRA max 340PC (Molecular Devices Corporation). The relative growth (%) of a well to which the test compound had been added and cultured for 72 hours was determined while setting the absorbance of a well to which not the test compound but DMSO alone had been added and cultured for 72 hours (control) as 100% and that of a well where the drugs are added (blank) as 0%. The cytostatic rate (%) of the test compound was determined by subtracting the calculated relative growth from 100.

IGF-1R = target: T1, IGF-1R (Homo sapiens, UniProt P08069); assay: IGF-1R inhibitory activity (kinase reaction, time-resolved fluoroimmunoassay); format: biochemical; conditions: test compound 10 μmol/L
T1 construct: purchased Upstate Co. 14-465
T1 sequence (P08069 959-1367 limits assumed): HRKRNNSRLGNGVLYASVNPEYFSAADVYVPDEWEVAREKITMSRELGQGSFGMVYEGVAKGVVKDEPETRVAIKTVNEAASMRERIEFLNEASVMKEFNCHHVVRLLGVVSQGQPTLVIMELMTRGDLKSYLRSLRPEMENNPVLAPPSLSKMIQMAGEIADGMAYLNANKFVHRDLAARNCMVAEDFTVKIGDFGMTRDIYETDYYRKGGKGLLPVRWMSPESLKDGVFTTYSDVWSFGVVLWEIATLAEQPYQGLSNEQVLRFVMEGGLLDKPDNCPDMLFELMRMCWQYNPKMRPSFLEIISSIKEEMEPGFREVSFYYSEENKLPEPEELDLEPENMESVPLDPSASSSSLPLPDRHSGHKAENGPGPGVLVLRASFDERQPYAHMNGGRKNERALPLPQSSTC
Summary of the method: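 Compounds were tested at a single 10 μmol/L concentration. Each was incubated with recombinant IGF-1R (200 μg/L), 10 mmol/L ATP, MgCl2/MnCl2 and Na3VO4 (pH 7.5) on immobilized poly(Glu-Tyr) peptide for 30 min at 24° C. Eu-anti-phosphotyrosine time-resolved fluorescence (340/615 nm) gave relative activity against no-compound and no-enzyme wells, reported as % inhibition.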

KMS-11 = assay: Cytostatic activity on human multiple myeloma cell line KMS-11 (WST-1); format: cell-based; conditions: Homo sapiens, KMS-11, 72 h, 10 μmol/L, 72 hours; read-out: cytostatic rate (%) KMS-11 (10 μmol/L)
Method: as §1, §2

[1] = Homo sapiens, NCI-H929, 72 h, 72 hours
[2] = IGF-1R active recombinant enzyme

| inhibition at 10 µM (IGF-1R) | inhibition at 10 µM (IGF-1R; [2]) | SMILES | inhibition at 10 µM (NCI-H929; [1]) | also measured |
| --- | --- | --- | --- | --- |
| 97% | – | Cc1ccsc1C(=O)Nc1ccc(OCCN2CCOCC2)cc1/C=C/c1n[nH]c2ccccc12 [Compound 103, (E)-N-{2-[2-(1H-indazol-3-yl)vinyl]-4-(2-morpholinoethoxy)phenyl}-3-methylthiophene-2-carboxamide] | 130% | – |
| 97.4% | – | Cc1ccsc1C(=O)Nc1cc(C(=O)N2CCNCC2)ccc1/C=C/c1n[nH]c2ccccc12 [Compound 99, (E)-N-{2-[2-(1H-indazol-3-yl)vinyl]-5-(piperazin-1-ylcarbonyl)phenyl}-3-methylthiophene-2-carboxamide] | – | inhibition at 10 µM (KMS-11): 118% |
| – | 95.7% | CC(C)C(=O)Nc1ccc(C(=O)Nc2ccccc2/C=C/c2n[nH]c3ccccc23)s1 [Compound 62, (E)-N-{2-[2-(1H-indazol-3-yl)vinyl]phenyl}-5-isobutyrylaminothiophene-2-carboxamide] | 120% | – |
| – | 97.9% | COC1CCN(C(=O)c2ccc(/C=C/c3n[nH]c4ccccc34)c(N3Cc4c(N)cccc4C3=O)c2)CC1 [Compound 310, (E)-4-amino-2-{2-[2-(1H-indazol-3-yl)vinyl]-5-(4-methoxypiperidin-1-ylcarbonyl)phenyl}-2,3-dihydroisoindole-1-one] | – | inhibition at 1 µM (NCI-H929; Homo sapiens, NCI-H929, 72 h, NCI-H929 cells, test compound 1 μmol/L, WST-1, read-out: cytostatic rate (%) H929 (1 μmol/L)): 105% |
| 97.1% | – | COC(=O)c1ccc(/C=C/c2n[nH]c3ccccc23)c(NC(=O)c2sccc2C)c1 [Compound 97, (E)-4-[2-(1H-indazol-3-yl)vinyl]-3-[(3-methylthiophen-2-ylcarbonyl)amino]benzoic acid methyl ester] | – | inhibition at 10 µM (KMS-11): 100% |
| 98.6% | – | CCN(C)C(=O)c1ccc(/C=C/c2n[nH]c3ccccc23)c(NC(=O)c2sccc2C)c1 [Compound 113, (E)-N-{5-(N-ethyl-N-methylcarbamoyl)-2-[2-(1H-indazol-3-yl)vinyl]phenyl}-3-methylthiophene-2-carboxamide] | – | inhibition at 10 µM (KMS-11): 121% |
| – | 70.4% | CC(=O)N1CCN(c2ccccc2/C=C/c2n[nH]c3ccccc23)CC1 [Compound 133, (E)-4-acetyl-1-{2-[2-(1H-indazol-3-yl)vinyl]phenyl}piperazine] | 62.9% | – |
| – | 99% | OCc1ccn(-c2ccccc2/C=C/c2n[nH]c3ccccc23)c1 [Compound 168, (E)-1-{2-[2-(1H-indazol-3-yl)vinyl]phenyl}-1H-pyrrole-3-methanol] | 106% | – |
| – | 93% | CN(C(=O)c1ccccc1)c1ccccc1/C=C/c1n[nH]c2ccccc12 [Compound 38, (E)-N-{2-[2-(1H-indazol-3-yl)vinyl]phenyl}-N-methylbenzamide] | 65% | – |
| 94.1% | – | Cn1cccc1C(=O)Nc1cc2c(cc1/C=C/c1n[nH]c3ccccc13)OCO2 [Compound 131, (E)-N-{6-[2-(1H-indazol-3-yl)vinyl]benzo[1,3]dioxol-5-yl}-1-methylpyrrole-2-carboxamide] | 122% | – |
| 98.4% | – | Cc1ccsc1C(=O)Nc1cc(C(=O)O)ccc1/C=C/c1n[nH]c2ccccc12 [Compound 98, (E)-4-[2-(1H-indazol-3-yl)vinyl]-3-[(3-methylthiophen-2-ylcarbonyl)amino]benzoic acid] | 66.3% | – |
| 66.5% | – | COc1cc(N)c(/C=C/c2n[nH]c3ccccc23)cc1OC [Compound 92, (E)-2-[2-(1H-indazol-3-yl)vinyl]-4,5-dimethoxyphenylamine] | 70.1% | – |
| 98.3% | – | Cn1cccc1C(=O)Nc1ccc(OCCN2CCOCC2)cc1/C=C/c1n[nH]c2ccccc12 [Compound 104, (E)-N-{2-[2-(1H-indazol-3-yl)vinyl]-4-(2-morpholinoethoxy)phenyl}-1-methylpyrrole-2-carboxamide] | 130% | – |
| – | 94.5% | O=C(Nc1ccc(C(=O)Nc2ccccc2/C=C/c2n[nH]c3ccccc23)s1)c1cccs1 [Compound 61, (E)-N-{2-[2-(1H-indazol-3-yl)vinyl]phenyl}-5-[(thiophen-2-ylcarbonyl)amino]thiophene-2-carboxamide] | 124% | – |
| 97.8% | – | Cc1ccsc1C(=O)Nc1cc(C(=O)N2CC[C@@H](N)C2)ccc1/C=C/c1n[nH]c2ccccc12 [Compound 102, (E)-(R)—N-{5-(3-aminopyrrolidine-1-ylcarbonyl)-2-[2-(1H-indazol-3-yl)vinyl]phenyl}-3-methylthiophene-2-carboxamide] | 125% | – |
| – | – | O=C(Nc1cc(C(=O)N2CCN(CCO)CC2)ccc1/C=C/c1n[nH]c2ccccc12)c1ccccc1 [Compound 290] | – | cytostatic rate (%) H929 (1 μmol/L) (NCI-H929; 1 μmol/L, 72 hours): 93.8%; inhibitory activity (%) at 10 μmol/L (IGF-1R; [2]): 95.7% |
| – | 99% | CN(C)C(=O)c1ccc(/C=C/c2n[nH]c3ccccc23)c(N2C(=O)c3ccccc3C2=O)c1 [Compound 285, (E)-3-(1,3-dioxo-1,3-dihydroisoindol-2-yl)-4-[2-(1H-indazol-3-yl)vinyl]-N,N-dimethylbenzamide] | – | – |
| – | 102% | C(=C\c1n[nH]c2ccccc12)/c1ccccc1-n1ccc(CNCC2CC2)c1 [Compound 189, (E)-3-cyclopropylmethylaminomethyl-1-{2-[2-(1H-indazol-3-yl)vinyl]phenyl}pyrrole] | – | – |
| – | 86.7% | O=C1CCC(=O)N1c1ccccc1/C=C/c1n[nH]c2ccccc12 [Compound 211, (E)-1-{2-[2-(1H-indazol-3-yl)vinyl]phenyl}pyrrolidine-2,5-dione] | – | – |
| – | – | Cc1ccc(C)n1-c1ccccc1/C=C/c1n[nH]c2ccccc12 [Compound 190] | – | inhibitory activity (%) at 10 μmol/L (IGF-1R; [2]): 96.9% |
| – | 87.2% | O=C(c1cnc(Nc2ccccc2/C=C/c2n[nH]c3ccccc23)s1)N1CCC(O)CC1 [Compound 171, (E)-4-hydroxy-1-{2-[2-(2-(1H-indazol-3-yl)vinyl)phenylamino]thiazole-5-ylcarbonyl}piperidine] | – | – |
| – | 85.9% | O=C1c2cc3ccccc3cc2C(=O)N1c1ccccc1/C=C/c1n[nH]c2ccccc12 [Compound 202, (E)-2-{2-[2-(1H-indazol-3-yl)vinyl]phenyl}benzo[f]isoindole-1,3-dione] | – | – |
| 98.3% | – | Cc1ccsc1C(=O)Nc1cc2c(cc1/C=C/c1n[nH]c3ccccc13)OCO2 [Compound 130, (E)-N-{6-[2-(1H-indazol-3-yl)vinyl]benzo[1,3]dioxol-5-yl}-3-methylthiophene-2-carboxamide] | 126% | – |
| – | 92.3% | O=C1c2ccc([N+](=O)[O-])cc2C(=O)N1c1ccccc1/C=C/c1n[nH]c2ccccc12 [Compound 192, (E)-2-{2-[2-(1H-indazol-3-yl)vinyl]phenyl}-5-nitroisoindole-1,3-dione] | – | – |
| – | 99.1% | C(=C\c1n[nH]c2ccccc12)/c1ccccc1Nc1ccccn1 [Compound 164, (E)-N-{2-[2-(1H-indazol-3-yl)vinyl]phenyl}-2-pyridylamine] | – | – |
| – | 102% | C(=C\c1n[nH]c2ccccc12)/c1ccccc1-n1cccc1 [Compound 162, (E)-3-{2-[2-(pyrrol-1-yl)phenyl]vinyl}-1H-indazole] | – | – |
| – | 94.9% | Cc1csc(NC(=O)c2ccccc2/C=C/c2n[nH]c3ccccc23)n1 [Compound 143, (E)-2-[2-(1H-indazol-3-yl)vinyl]-N-(4-methylthiazol-2-yl)benzamide] | – | – |
| – | – | Cc1ccsc1C(=O)Nc1cc(C(=O)N2CCN(C)CC2)ccc1/C=C/c1n[nH]c2ccccc12.Cl [Compound 128, (E)-N-{2-[2-(1H-indazol-3-yl)vinyl]-5-(4-methylpiperazine-1-ylcarbonyl)phenyl}-3-methylthiophene-2-carboxamide hydrochloride] | – | inhibitory activity (%) at 10 μmol/L (IGF-1R): 98.8% |
